From US20210386835A1, “AN ANTIMICROBIAL COMPOSITION FOR SELECTIVELY INHIBITING GROWTH OF P. ACNES BACTERIA” (priority 2018, published 2021)

Test system: P. acnes 6919 strain (ATCC, USA)
Assay: Contact kill assay against P. acnes (2 h exposure, colony count)
Assay type: cell-based, Propionibacterium acnes
Details: 10 mM HEPES pH 7.0, 37° C., relative to control
Experimental: P. acnes 6919 strain (ATCC, USA) was grown under anaerobic conditions on RCM agar from Glycerol stocks. A loopful of culture from glycerol stock was streaked on freshly prepared RCM agar plate and incubated at 37° C. anaerobically for 4-5 days. After the incubation, the culture was taken from the plate and re-suspended in saline and then centrifuged at 8000 rpm for 6 minutes at 4° C. The pellet obtained was re-suspended in 10 mM HEPES buffer (pH 7.0). An OD600 culture of 0.5 was made in HEPES buffer. 1:10 dilution of 0.5 OD adjusted culture was used for contact kill assay corresponding to 10^6 cells per ml. […] The contact assay was performed in 10 mM HEPES buffer (pH 7.0). For control, 181 μl of 1:10 diluted […] adjusted culture was mixed with 19 μl of HEPES buffer to make a volume of 200 μl. […] The mixture was mixed and incubated at 37° C. for 2 hours in shaker incubator. Post incubation, the samples were neutralised by serial 1:10 dilution in D/E broth followed by saline dilutions. 100 μl of each dilution was plated on fresh RCM agar plates and allowed to dry. The plates were sealed with parafilm and incubated at 37° C. in anaerobic chamber for 4-5 days. Post incubation, colonies were counted and titer was estimated as log CFU/ml. The relative log reductions of individual and combination treatment were calculated with respect to control and the data is presented in the table below: […]

Molecule `Cc1ccc(C(C)C)c(O)c1` [Thymol, thymol] has a Relative log reduction (Thymol 0.01%) of 0.33 and a Relative log reduction (Thymol 0.02%) of 2.02.

B1: Endolysin: recombinant P. acnes phage endolysin cloned from Propionibacterium phage 29399B_C, 284 amino acids, expressed in E. coli (protein)
chain: MRYIPAAHHSAGSNHPVNRVVIHATCPDVGFPSASRKGRAVSTANYFASPSSGGSAHYVCDIGETVQCLSEGTIGWHAPPNPHSLGIEICADGGSHASFRVPGHAYTREQWLDPRVWPAVEKAAILCRRLCDKYNVPKRKLSAADLKAGRRGVCGHVDVTDAWHQSDHDDPGPWFPWDRFMAVVNGHNESGELTVADVKALHDQIKQLSAQLAGSVNKLHHDVGVVQVQNGDLGKRVDALSWVKNPVTGKLWRTKDALWSVWYYVLECRSRIDRLESAVNGLKKLEHHHHHH
modifications: His6 tag; Polypeptide sequence of Endolysin with C-terminal Histidine tag (x6)
For B1, the Relative log reduction (Endolysin 3 μM) was 1.17.
